Source: EP1967187A1, “Composition based on rutin and L-lysine” (Ennamany, Rachid, priority 2007, dated 2008)

Molecular target: T1, arginase Th2-dépendante (Homo sapiens, UniProt P05089)
T1 sequence (P05089 1-322): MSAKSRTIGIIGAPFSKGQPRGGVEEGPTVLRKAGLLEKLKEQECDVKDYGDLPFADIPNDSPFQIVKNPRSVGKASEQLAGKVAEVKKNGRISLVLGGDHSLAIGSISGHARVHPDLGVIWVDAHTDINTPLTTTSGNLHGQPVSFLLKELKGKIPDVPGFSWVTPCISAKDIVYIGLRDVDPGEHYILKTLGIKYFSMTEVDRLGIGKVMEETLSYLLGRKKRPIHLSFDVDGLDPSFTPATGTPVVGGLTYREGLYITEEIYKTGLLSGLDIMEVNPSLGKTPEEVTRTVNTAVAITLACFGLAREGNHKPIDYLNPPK
Assay: Inhibition of Th2-dependent arginase
Assay type: biochemical

Compound: NCCCC[C@H](N)C(=O)O [L-Lysine, L-lysine]
- action sur l'arginase Th2-dépendante: action inhibitrice
